Where two headings read alike, the source gives them in different places.
Tests used:
[1] = test system: histamine bronchospasm; assay: Bronchodilator activity in vivo, anesthetized guinea pig, intraduodenal (inhibition of histamine bronchospasm, KONZETT)
Description: (§1) 1.2.1 In the anesthesized guinea pig (method of KONZETT. Arch. Exp. Pathol. Pharmakol. 1940 195 71-74)
(§2) A bronchospasm was caused by intravenous histamine injection. The bronchodilator activity was shown by partial or total inhibition of this spasm.
The product studied was administered intravenously or intraduodenaly and histamine injected then at different times to follow the delay in appearance and the duration of the inhibiting effect of the treatment.
The results below are the averages of the values obtained in 10 animals.

[2] = test system: histamine bronchospasm; assay: Bronchodilator activity in vivo, anesthetized guinea pig, intravenous (inhibition of histamine bronchospasm, KONZETT); conditions: i.v.
Description: as §1, §2
The product studied was administered intravenously or intraduodenaly and histamine injected then at different times to follow the delay in appearance and the duration of the inhibiting effect of the treatment. […]

[3] = test system: isolated right atrium preparation of the guinea pig; assay: Activity on the heart rate in vitro, isolated right atrium
Description: This action was studied on an isolated right atrium preparation of the guinea pig kept alive in a RINGER solution. The effect of cumulative doses on the heart rate was recorded. The results below are the averages of 6 preparations of the compound A, of 4 for Salbutamol

[4] = test system: guinea pig trachea; assay: β-stimulant specificity: guinea pig trachea before and after propranolol; conditions: for EC50: Cavia porcellus, 6 preparations
From the text: respiratory (guinea pig trachea, in vitro)
cardiovascular (heart rate of the dog, in vivo) by the antagonistic effect of a β-blocking product.

[5] = test system: isolated trachea preparation of the guinea pig; assay: Relaxant activity on isolated tracheal muscle in vitro; conditions: 6 preparations
Description: This activity was studied on an isolated trachea preparation of the guinea pig (chain of tracheal rings, according to CASTILLO and BEER. Journ. Pharmacol. Exp. Ther. 1947 90 104-109), kept alive in a KREBS solution. The effect of cumulative doses on the pressure of the preparation was recorded.
The activity of the substance was expressed by the value of the molar CD50 (decontracting concentration 50=concentration giving 50% of maximum relaxation), of which the negative log. is the value pD2, and by the intrinsic activity corresponding to maximum effect.
These values were determined in parallel for the compound A and Salbutamol, on 6 preparations for each.

[6] = test system: histamine bronchospasm; assay: Bronchodilator activity in vivo, anesthetized dog, intraduodenal (intratracheal pressure, histamine bronchospasm)
Description: 1.2.2. In the anesthesized dog (recording of the intratracheal pressure)
A bronchospasm was caused by intravenous injection and histamine. The bronchodilator activity was shown by partial or total inhibition of this spasm.
The products studied were administered intraduodenally and the histamine injected then at various times to follow the effect of the treatment.
The results borne in the table below are the averages of the values obtained in 3 animals for each product.

[7] = test system: rat uterus preparation; assay: Uterus relaxing activity in vitro; conditions: Rattus norvegicus, 7 preparations, read-out: CE50 (effective concentration 50, inhibiting by 50% the control contraction)
From the text: This activity was investigated on a rat uterus preparation, put into estrus by cutaneous injection of oestradiol benzoate. The uterine horns were kept alive in a RINGER-LOCKE solution, modified by GADDUM and VOGT.
Their activity is expressed by the value of the molar CE50 (effective concentration 50, inhibiting by 50% the control contraction induced by the contracting agent).
Each CE50 indicated below was obtained from the results of 7 preparations.

[8] = test system: heart rate and mean aortic pressure; assay: Heart rate and mean aortic pressure of the anesthetised dog, intraduodenal; type: in vivo; conditions: intraduodenal
Description: 3.1.1. Activity on the heart rate and on the mean aortic pressure of the anesthetisied dog
The activity of the compound A and of Salbutamol was studied on 2 batches of 3 dogs per product: one in spontaneous respiration, the other in artificial respiration; the two substances were administered intraduodenally at 3 doses: 0.008-0.025 and 0.08 mg/kg.

## CC(C)(C)NCC(O)c1ccc(O)c(CO)c1 (stereo not drawn) [Salbutamol, reference compound]
[1]
  Dose to obtain a high activity: 8 mg/kg
[1]; 0.8 mg base/kg, 1 min
  % inhibition in time: 4%
[1]; 0.8 mg base/kg, 5 min
  % inhibition in time: 18%
[1]; 0.8 mg base/kg, 15 min
  % inhibition in time: 16%
[1]; 0.8 mg base/kg, 30 min
  % inhibition in time: 16%
[1]; 0.8 mg base/kg, 45 min
  % inhibition in time: 13%
[1]; 0.8 mg base/kg, 60 min
  % inhibition in time: 13%
[1]; 2.5 mg base/kg, 1 min
  % inhibition in time: 2%
[1]; 2.5 mg base/kg, 5 min
  % inhibition in time: 14%
[1]; 2.5 mg base/kg, 15 min
  % inhibition in time: 32%
[1]; 2.5 mg base/kg, 30 min
  % inhibition in time: 34%
[1]; 2.5 mg base/kg, 45 min
  % inhibition in time: 29%
[1]; 2.5 mg base/kg, 60 min
  % inhibition in time: 23%
[1]; 2.5 mg base/kg, 90 min
  % inhibition in time: 15%
[1]; 2.5 mg base/kg, 120 min
  % inhibition in time: 10%
[1]; 8 mg base/kg, 1 min
  % inhibition in time: 31%
[1]; 8 mg base/kg, 5 min
  % inhibition in time: 64%
[1]; 8 mg base/kg, 15 min
  % inhibition in time: 76%
[1]; 8 mg base/kg, 30 min
  % inhibition in time: 72%
[1]; 8 mg base/kg, 45 min
  % inhibition in time: 65%
[1]; 8 mg base/kg, 60 min
  % inhibition in time: 58%
[1]; 8 mg base/kg, 90 min
  % inhibition in time: 52%
[1]; 8 mg base/kg, 120 min (n = 9 compound A, n = 8 Salbutamol)
  % inhibition in time: 37%
[2]; 0.08 μg base/kg, 1 min
  % inhibition in time: 8%
[2]; 0.08 μg base/kg, 5 min
  % inhibition in time: 2%
[2]; 0.08 μg base/kg, 10 min
  % inhibition in time: 0%
[2]; 0.08 μg base/kg, 15 min
  % inhibition in time: 1%
[2]; 0.25 μg base/kg, 1 min
  % inhibition in time: 25%
[2]; 0.25 μg base/kg, 5 min
  % inhibition in time: 6%
[2]; 0.25 μg base/kg, 10 min
  % inhibition in time: 2%
[2]; 0.25 μg base/kg, 15 min
  % inhibition in time: 2%
[2]; 0.8 μg base/kg, 1 min
  % inhibition in time: 54%
[2]; 0.8 μg base/kg, 5 min
  % inhibition in time: 8%
[2]; 0.8 μg base/kg, 10 min
  % inhibition in time: 7%
[2]; 0.8 μg base/kg, 15 min
  % inhibition in time: 2%
[2]; 2.5 μg base/kg, 1 min
  % inhibition in time: 75%
[2]; 2.5 μg base/kg, 5 min
  % inhibition in time: 13%
[2]; 2.5 μg base/kg, 10 min
  % inhibition in time: 8%
[2]; 2.5 μg base/kg, 15 min
  % inhibition in time: 4%
[2]; 8 μg base/kg, 1 min
  % inhibition in time: 91%
[2]; 8 μg base/kg, 5 min
  % inhibition in time: 35%
[2]; 8 μg base/kg, 10 min
  % inhibition in time: 13%
[2]; 8 μg base/kg, 15 min
  % inhibition in time: 8%
[2]; 25 μg base/kg, 1 min
  % inhibition in time: 97%
[2]; 25 μg base/kg, 5 min
  % inhibition in time: 78%
[2]; 25 μg base/kg, 10 min
  % inhibition in time: 34%
[2]; 25 μg base/kg, 15 min
  % inhibition in time: 22%
[2]; 83 μg base/kg, 1 min
  % inhibition in time: 94%
[2]; 83 μg base/kg, 5 min
  % inhibition in time: 81%
[2]; 83 μg base/kg, 10 min
  % inhibition in time: 60%
[2]; 83 μg base/kg, 15 min
  % inhibition in time: 55%
[2]; 83 μg base/kg, 30 min
  % inhibition in time: 50%
[2]; 83 μg base/kg, 45 min (n = 9)
  % inhibition in time: 30%
[2]; 83 μg base/kg, 60 min (n = 9)
  % inhibition in time: 17%
[3]; 1 × 10^-4 mol
  Heart rate, increase: +110 beats per min.
[3]; 1 × 10^-4 mol, basal 202 (Salbutamol)
  Heart rate, maximum: 312 beats per min.
[3]; 1 × 10^-5 mol (maxi for Salbutamol)
  Heart rate, increase: +115 beats per min.
[3]; 1 × 10^-5 mol, basal 209 (Compound A), 202 (Salbutamol)
  Heart rate, maximum: 317 beats per min.
[3]; 1 × 10^-6 mol (maxi for Compound A)
  Heart rate, increase: +106 beats per min.
[3]; 1 × 10^-6 mol, basal 209 (Compound A), 202 (Salbutamol)
  Heart rate, maximum: 308 beats per min.
[3]; 1 × 10^-7 mol
  Heart rate, increase: +90 beats per min.
[3]; 1 × 10^-7 mol, basal 209 (Compound A), 202 (Salbutamol)
  Heart rate, maximum: 292 beats per min.
[3]; 1 × 10^-8 mol
  Heart rate, increase: +49 beats per min.
[3]; 1 × 10^-8 mol, basal 202 (Salbutamol)
  Heart rate, maximum: 251 beats per min.
[4]; read-out: CD50 before propranolol
  EC50: 0.011 µM
[4]; propranolol 1.7×10^-8 mol, read-out: CD50 after propranolol
  EC50: 0.038 µM
[4]; after / before propranolol
  Ratio of CD50: 3.5
[5]
  Maximum response (decontraction): 358 mg
[5]; Cavia porcellus, Salbutamol 1.00, read-out: Intrinsic activity
  Emax: 100%
[5]; Cavia porcellus, read-out: CD50 (decontracting concentration 50, concentration giving 50% of maximum relaxation)
  EC50: 0.015 µM
[5]; Cavia porcellus, negative log of molar CD50, read-out: pD2 (converted)
  EC50: 0.0151 µM
[6]; 0.025 mg base/kg, 5 min
  % inhibition in time: 21%
[6]; 0.025 mg base/kg, 20 min
  % inhibition in time: 65%
[6]; 0.025 mg base/kg, 35 min
  % inhibition in time: 63%
[6]; 0.025 mg base/kg, 60 min
  % inhibition in time: 61%
[6]; 0.025 mg base/kg, 90 min
  % inhibition in time: 65%
[6]; 0.08 mg base/kg, 5 min
  % inhibition in time: 8%
[6]; 0.08 mg base/kg, 20 min
  % inhibition in time: 50%
[6]; 0.08 mg base/kg, 35 min
  % inhibition in time: 56%
[6]; 0.08 mg base/kg, 60 min
  % inhibition in time: 55%
[6]; 0.08 mg base/kg, 90 min
  % inhibition in time: 52%
[7]; contracting agent acetylcholine
  EC50: 0.005 µM
[7]; contracting agent serotonine
  EC50: 0.0083 µM
[8]; artificial respiration, 15 min after 0.025 mg/kg
  Heart rate, maximum cumulative effect: +41 cpm
[8]; artificial respiration, 90 min after 0.08 mg/kg
  Average aortic pressure, maximum cumulative effect: -36 mmHg
[8]; spontaneous respiration, 20 min after 0.08 mg/kg
  Heart rate, maximum cumulative effect: +26 cpm
[8]; spontaneous respiration, 1 h after 0.08 mg/kg
  Average aortic pressure, maximum cumulative effect: -40 mmHg

From patent US4513001A, “β-Adrenergic 1-[1-benzimidazolyl]-N-[2-(4-hydroxy-3-methoxy-phenyl)-2-hydroxy-ethyl]- 3-amino butane and salts and hydrates thereof” (priority 1982, dated 1985)
